{"source": "patent US10011573B2", "about": "“Human androgen receptor DNA-binding domain (DBD) compounds as therapeutics and methods for their use” (The University of British Columbia, priority 2014, dated 2018)", "key": {"[1]": {"test_system": "PSA", "test": "Prostate-specific antigen (PSA) assay, secreted PSA from the eGFP assay plates", "type": "cell-based, human", "conditions": "Homo sapiens", "procedure": "3. Prostate-specific antigen (PSA) assay: The evaluation of PSA levels secreted into the media was performed in parallel to the eGFP assay using the same plates. After cells were incubated for 3 days, 150 μl of the media was taken from each well, and added to 150 μl of PBS."}, "[2]": {"biological_target": "T1, full-length human AR (Homo sapiens, UniProt P10275)", "T1 construct": "expressed in transfected cells; host or cells: PC3 (AR-negative human prostate cancer cells)", "T1 sequence (P10275 1-920)": "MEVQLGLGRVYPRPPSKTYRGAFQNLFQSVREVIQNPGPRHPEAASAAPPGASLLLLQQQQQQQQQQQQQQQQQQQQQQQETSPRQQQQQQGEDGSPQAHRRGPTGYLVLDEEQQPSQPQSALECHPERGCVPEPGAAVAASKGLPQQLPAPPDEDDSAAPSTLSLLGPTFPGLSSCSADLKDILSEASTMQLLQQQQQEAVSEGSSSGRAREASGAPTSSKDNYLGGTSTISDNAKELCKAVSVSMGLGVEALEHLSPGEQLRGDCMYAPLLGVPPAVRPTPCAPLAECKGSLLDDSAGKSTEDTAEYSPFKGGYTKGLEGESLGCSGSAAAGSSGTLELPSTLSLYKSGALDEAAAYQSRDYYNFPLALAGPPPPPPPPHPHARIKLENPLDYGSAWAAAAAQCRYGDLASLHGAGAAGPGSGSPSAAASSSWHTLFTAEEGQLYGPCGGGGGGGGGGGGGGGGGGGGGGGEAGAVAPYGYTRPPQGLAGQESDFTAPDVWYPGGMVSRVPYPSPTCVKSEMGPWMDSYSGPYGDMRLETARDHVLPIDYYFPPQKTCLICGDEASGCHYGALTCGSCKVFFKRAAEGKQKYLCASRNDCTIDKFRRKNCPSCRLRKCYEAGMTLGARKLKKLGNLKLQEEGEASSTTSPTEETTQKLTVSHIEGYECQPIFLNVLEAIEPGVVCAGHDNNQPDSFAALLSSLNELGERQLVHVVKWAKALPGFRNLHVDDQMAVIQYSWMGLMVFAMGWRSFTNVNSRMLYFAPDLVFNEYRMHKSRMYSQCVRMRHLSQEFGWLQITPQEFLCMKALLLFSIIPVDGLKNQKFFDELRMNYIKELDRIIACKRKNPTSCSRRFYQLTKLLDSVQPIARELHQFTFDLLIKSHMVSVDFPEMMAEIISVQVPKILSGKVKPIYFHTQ", "test": "ARR3tk-luciferase reporter assay in PC3 cells, wild-type AR", "type": "cell-based", "conditions": "transient AR, R1881", "procedure": "9. Transient Transfection: The PC3/MCF7 cells were seeded into a 96-well plate (2,000 cells/well). After 24 hrs, the wild-type AR (50 ng/well)/AR mutants and AR3TK-luciferase plasmids (1:3) were co-transfected into PC3 cells or ERE-luciferase (50 ng/well) was transfected into MCF7 cells using transfection reagent TT20. 24 hrs after the transfection, the cells were treated with the compounds at various concentrations. And 24 hrs later, the cells were lysed and the reading was taken using a luminometer."}, "[3]": {"biological_target": "T2, AR-V7 (Homo sapiens, UniProt P10275)", "T2 construct": "expressed in transfected cells; host or cells: PC3", "T2 sequence (P10275 1-644 isoform P10275-3)": "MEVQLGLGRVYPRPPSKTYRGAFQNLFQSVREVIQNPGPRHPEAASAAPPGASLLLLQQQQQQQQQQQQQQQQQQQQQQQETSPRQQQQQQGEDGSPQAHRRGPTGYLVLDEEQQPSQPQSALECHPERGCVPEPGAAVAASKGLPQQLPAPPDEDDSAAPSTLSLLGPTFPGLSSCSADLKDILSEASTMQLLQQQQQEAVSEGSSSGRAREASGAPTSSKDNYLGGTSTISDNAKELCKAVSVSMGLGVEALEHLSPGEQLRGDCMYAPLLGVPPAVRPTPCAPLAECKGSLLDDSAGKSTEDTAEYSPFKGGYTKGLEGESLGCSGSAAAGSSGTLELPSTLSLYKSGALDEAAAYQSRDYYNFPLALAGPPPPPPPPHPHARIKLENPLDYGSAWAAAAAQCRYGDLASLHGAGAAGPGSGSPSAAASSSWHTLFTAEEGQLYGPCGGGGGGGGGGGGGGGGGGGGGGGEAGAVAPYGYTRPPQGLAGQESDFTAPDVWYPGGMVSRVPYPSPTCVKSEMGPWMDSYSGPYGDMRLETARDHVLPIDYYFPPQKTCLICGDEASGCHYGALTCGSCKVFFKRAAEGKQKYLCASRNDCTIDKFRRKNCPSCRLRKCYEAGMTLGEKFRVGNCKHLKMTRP", "test": "ARR3tk-luciferase reporter assay in PC3 cells, splice variant AR-V7", "type": "cell-based", "excerpt": "Full-length human AR (hARWT) or splice variant (AR-V7) was encoded on a pcDNA3.1 expression plasmid."}, "[4]": {"biological_target": "AR Q592A mutant (Homo sapiens, UniProt P10275, Q592A)", "sequence (P10275 whole entry Q592A)": "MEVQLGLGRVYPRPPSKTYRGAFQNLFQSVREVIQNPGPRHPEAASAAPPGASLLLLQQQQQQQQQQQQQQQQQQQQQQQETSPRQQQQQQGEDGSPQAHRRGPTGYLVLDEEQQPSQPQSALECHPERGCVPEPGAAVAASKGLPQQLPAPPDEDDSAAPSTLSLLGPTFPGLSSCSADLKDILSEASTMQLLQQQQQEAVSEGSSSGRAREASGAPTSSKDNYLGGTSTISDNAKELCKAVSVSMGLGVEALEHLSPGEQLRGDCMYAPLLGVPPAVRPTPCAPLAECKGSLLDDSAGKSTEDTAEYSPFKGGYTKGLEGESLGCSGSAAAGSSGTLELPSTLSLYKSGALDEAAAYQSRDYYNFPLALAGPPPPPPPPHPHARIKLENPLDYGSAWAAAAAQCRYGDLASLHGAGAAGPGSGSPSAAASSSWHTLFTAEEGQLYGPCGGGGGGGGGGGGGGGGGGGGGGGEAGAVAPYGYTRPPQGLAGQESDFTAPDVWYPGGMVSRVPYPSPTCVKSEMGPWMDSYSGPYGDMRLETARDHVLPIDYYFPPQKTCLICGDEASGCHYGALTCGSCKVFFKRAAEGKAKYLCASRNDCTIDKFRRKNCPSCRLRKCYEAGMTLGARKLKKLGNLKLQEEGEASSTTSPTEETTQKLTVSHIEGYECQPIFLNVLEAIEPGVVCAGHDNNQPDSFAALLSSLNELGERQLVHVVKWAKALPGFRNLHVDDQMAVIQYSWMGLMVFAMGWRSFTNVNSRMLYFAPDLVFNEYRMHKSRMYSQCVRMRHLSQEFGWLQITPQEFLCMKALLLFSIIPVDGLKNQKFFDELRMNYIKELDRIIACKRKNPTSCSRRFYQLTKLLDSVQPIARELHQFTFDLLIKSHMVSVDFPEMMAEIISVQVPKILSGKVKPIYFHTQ", "test": "ARR3tk-luciferase reporter assay in PC3 cells, AR Q592A", "experimental": "Cells were then treated with compounds at various concentrations and 0.1 nMR1881 (in 100% ethanol) for 24 h. […] Cell lysis was carried out with 60 μl of 1X passive lysis buffer/well (Promega™)\n20 μl of cell lysate from each well were mixed with 50 μl of luciferase assay reagent (Promega™), and luminescence was recorded on a TECAN™ M200pro plate reader. Luciferase assays with splice variant AR were performed the same way but with only 5 ng of pcDNA3.1 AR-V7 (to limit the high level of AR-V7 expression) and no R1881."}, "[5]": {"biological_target": "T3, AR-DBD+hinge / ARE dsDNA (Homo sapiens, UniProt P10275)", "T3 sequence (P10275 558-689)": "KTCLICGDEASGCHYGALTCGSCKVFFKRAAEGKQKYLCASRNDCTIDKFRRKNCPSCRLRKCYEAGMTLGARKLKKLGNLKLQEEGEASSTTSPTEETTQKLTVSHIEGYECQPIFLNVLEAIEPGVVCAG", "test": "EMSA (gel shift) assay", "type": "biochemical", "parameters": "His6 (N); made in house; host or cells: E. coli BL21 (DE3)", "procedure": "The plasmid encoding the AR-DBD+hinge was transformed into BL21 (DE3). BL21 cells designated for expression of biotin-labeled AR-DBD+hinge were co-transformed with the Pan4 AR-DBD+hinge (ampicillin selection) and biotin ligase expression vectors (pBir-Acm, chloramphenicol selection). Single colonies were grown in 2 liters of LB media supplemented with 50 μg/ml ampicillin and 35 μg/ml chloramphenicol (where appropriate) to A600 nm=0.6 before induction with 0.1 mM isopropyl β-D-1-thiogalactopyranoside for 3 h at 37° C. Cultures expressing the AR-DBD with the biotinylation sequence were simultaneously supplemented with 0.150 mM biotin during the induction step. Cell pellets were resuspended in ˜20 ml of 50 mM Tris-HCl, pH 8.0, 300 mM NaCl, 5% glycerol (Buffer A) supplemented with 10 mM imidazole and incubated with 0.1 mg/ml chicken egg white lysozyme (Sigma™) and 0.1 mM PMSF protease inhibitor for 30 min on ice. Cell lysis was achieved by sonication, followed by centrifugation at 13,000×g for 30 min at 4° C. The supernatant was rotated with 2 ml of nickel-agarose beads (GE Healthcare™) for 1 h at 4° C. and then directly loaded onto a Poly-Prep 10-ml gravity chromatography column (Bio-Rad™). Washing was performed with 2×4 ml of Buffer A supplemented with 20 mM imidazole. Pure proteins were eluted in 500-μl fractions with 2 ml of Buffer A containing 250 mM imidazole. […]"}, "[6]": {"conditions": "LNCaP eGFP cells, R1881, secreted PSA"}}, "note": "“Also recorded” adds a separate entry of the source. Like-named read-outs stand apart in the source and are kept apart here."}
{"compound": "Brc1ncn(-c2csc(N3CCOCC3)n2)c1Br", "note": "[Compound 14449]", "values": [{"measurement": "IC50", "setting": "[1]; [6]", "value": 170, "unit": "nM"}, {"measurement": "IC50", "setting": "[1]; Series 1", "value": 170, "unit": "nM"}, {"measurement": "IC50", "setting": "[2]", "value": 340, "unit": "nM"}, {"measurement": "inhibition of AR-V7 transcriptional activity", "setting": "[3]; PC3 cells, no R1881", "value": "reduced with increasing concentrations; also recorded: inhibit the transcription of AR-V7 in a concentration-dependent manner"}, {"measurement": "IC50", "setting": "[4]", "value": "3000 to 6000", "unit": "nM"}, {"measurement": "protein-DNA complex formation (gel shift)", "setting": "[5]", "value": "could not prevent protein-DNA complex formation"}]}
{"compound": "c1ccc(-c2csc(N3CCOCC3)n2)cc1", "note": "[Compound 14228, 4-(4-phenylthiazol-2-yl)morpholine]", "values": [{"measurement": "IC50", "setting": "[1]; [6]", "value": 188, "unit": "nM"}, {"measurement": "IC50", "setting": "[1]; Series 1", "value": 280, "unit": "nM"}, {"measurement": "IC50", "setting": "[2]", "value": 2360, "unit": "nM"}, {"measurement": "inhibition of AR-V7 transcriptional activity", "setting": "[3]", "value": "reduced with increasing concentrations; also recorded: inhibit the transcription of AR-V7 in a concentration-dependent manner"}, {"measurement": "IC50", "setting": "[4]", "value": "3000 to 6000", "unit": "nM"}, {"measurement": "protein-DNA complex formation (gel shift)", "setting": "[5]", "value": "could not prevent protein-DNA complex formation"}]}
